# Values quoted from earlier work, collected in US20140271726A1, “COMPOSITIONS AND METHODS FOR […] SUSCEPTIBILITY TO ANTIVIRAL AGENTS” (WISCONSIN ALUMNI RESEARCH FOUNDATION, priority 2013, published 2014).
# Test system: HCV genotype 3
# Details: genotype 3 patient, short duration monotherapy
smiles,measurement,value
C/C=C/C[C@@H](C)[C@@H](O)[C@H]1C(=O)N[C@@H](CC)C(=O)N(C)[C@H](C)C(=O)N(CC)[C@@H](C(C)C)C(=O)N[C@@H](C(C)C)C(=O)N(C)[C@@H](CC(C)C)C(=O)N[C@@H](C)C(=O)N[C@H](C)C(=O)N(C)[C@@H](CC(C)C)C(=O)N(C)[C@@H](CC(C)C)C(=O)N(C)[C@@H](C(C)C)C(=O)N1C [alisprovir],clinical outcome,cured
